Two compounds from ChEMBL document CHEMBL3526017, “Predicting the drug interaction potential of AMG 853, a dual antagonist of the D-prostanoid and chemoattractant receptor-homologous molecule expressed on T helper 2 cells receptors” (Drug Metab Dispos, 2012) can be followed below.

Usually Vmax stands for the rate approached at saturating substrate. One may read the Ki as a dissociation constant, usually derived from enzyme kinetics or from competition with a known ligand. By Cmax is commonly meant the highest concentration seen after dosing.

The nature of data set [1]: Drug metabolism in human liver microsomes assessed as CYP3A5*1/*1-compound formation after 15 mins by LC-MS/MS analysis in presence of UDPGA. The data set is classed as ADME. To be noted: 0.25 h.
Data set [2] addresses T1, UDP-glucuronosyltransferase 2B7 (Homo sapiens, UniProt P16662).
T1 sequence (P16662 whole entry): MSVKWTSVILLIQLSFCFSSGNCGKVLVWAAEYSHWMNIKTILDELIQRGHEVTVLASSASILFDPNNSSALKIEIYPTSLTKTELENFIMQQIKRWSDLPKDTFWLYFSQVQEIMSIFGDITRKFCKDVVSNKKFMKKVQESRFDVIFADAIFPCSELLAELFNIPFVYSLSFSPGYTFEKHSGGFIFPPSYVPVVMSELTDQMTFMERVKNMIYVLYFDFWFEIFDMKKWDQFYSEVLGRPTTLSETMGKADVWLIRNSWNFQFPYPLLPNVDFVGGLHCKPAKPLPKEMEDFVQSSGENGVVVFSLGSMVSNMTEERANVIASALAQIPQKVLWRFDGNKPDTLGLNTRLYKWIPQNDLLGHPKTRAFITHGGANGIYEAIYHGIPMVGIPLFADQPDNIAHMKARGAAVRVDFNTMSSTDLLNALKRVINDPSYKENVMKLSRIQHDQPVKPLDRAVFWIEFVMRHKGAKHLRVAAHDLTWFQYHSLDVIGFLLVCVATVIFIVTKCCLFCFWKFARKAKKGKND
The data set can be described thus: Drug metabolism assessed as human recombinant UGT2B7-mediated compound formation treated with AMG 853 at 10 uM after 30 mins by LC-MS/MS analysis. The data set is classed as ADME. To be noted: recombinant enzyme, 0.5 h.

The target of data set [3] is T1, UDP-glucuronosyltransferase 2B7. The data set can be described thus: Drug metabolism assessed as human recombinant UGT2B7-mediated compound formation treated with AMG 853 after 45 mins by LC-MS/MS analysis in presence of UDPGA. To be noted: recombinant enzyme, 0.75 h. The data set is classed as ADME.
Data set [4] is described as follows: Drug metabolism in human liver microsomes assessed as […]-mediated compound formation after 15 mins by LC-MS/MS analysis in presence of UDPGA. In kind it is ADME. To be noted: 0.25 h. (In general: Liver microsomes are vesicles of endoplasmic reticulum, rich in cytochrome P450 enzymes.)
In data set [5] the target is UDP-glucuronosyltransferase 1A4 (Homo sapiens, UniProt P22310). In words: Drug metabolism assessed as human recombinant UGT1A4-mediated (2S,3S,4S,5R,6S)-6-(2-(4-(4-(tert-butylcarbamoyl)-2-(2-chloro-4-cyclopropylphenylsulfonamido)phenoxy)-5-chloro-2-fluorophenyl)acetoxy)-3,4,5-trihydroxytetrahydro-2H-pyran-2-carboxylic acid formation at 10 uM after 30 mins by LC-MS/MS analysis. In kind it is ADME. To be noted: recombinant enzyme, 0.5 h.
Sequence of UDP-glucuronosyltransferase 1A4 (P22310 whole entry): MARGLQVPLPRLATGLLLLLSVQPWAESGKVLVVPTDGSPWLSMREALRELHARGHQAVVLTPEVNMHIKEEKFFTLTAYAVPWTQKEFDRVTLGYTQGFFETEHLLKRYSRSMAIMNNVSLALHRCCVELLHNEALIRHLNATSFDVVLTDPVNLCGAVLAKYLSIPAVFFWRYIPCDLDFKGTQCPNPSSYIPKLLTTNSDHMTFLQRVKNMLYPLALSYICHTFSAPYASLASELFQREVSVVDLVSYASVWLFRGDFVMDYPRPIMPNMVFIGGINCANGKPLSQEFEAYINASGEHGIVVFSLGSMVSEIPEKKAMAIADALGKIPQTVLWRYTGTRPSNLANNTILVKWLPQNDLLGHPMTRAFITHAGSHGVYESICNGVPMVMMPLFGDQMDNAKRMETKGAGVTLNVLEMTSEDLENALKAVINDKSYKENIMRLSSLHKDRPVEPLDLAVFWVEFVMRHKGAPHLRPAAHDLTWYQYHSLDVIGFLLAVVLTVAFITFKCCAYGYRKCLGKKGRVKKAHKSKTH

For data set [6], the target named is UDP-glucuronosyltransferase 1A7 (Homo sapiens, UniProt Q9HAW7). In words: Drug metabolism assessed as human recombinant UGT1A7-mediated (2S,3S,4S,5R,6S)-6-(2-(4-(4-(tert-butylcarbamoyl)-2-(2-chloro-4-cyclopropylphenylsulfonamido)phenoxy)-5-chloro-2-fluorophenyl)acetoxy)-3,4,5-trihydroxytetrahydro-2H-pyran-2-carboxylic acid formation at 10 uM after 30 mins by LC-MS/MS analysis. The data set is classed as ADME. To be noted: recombinant enzyme, 0.5 h.
Sequence of UDP-glucuronosyltransferase 1A7 (Q9HAW7 whole entry): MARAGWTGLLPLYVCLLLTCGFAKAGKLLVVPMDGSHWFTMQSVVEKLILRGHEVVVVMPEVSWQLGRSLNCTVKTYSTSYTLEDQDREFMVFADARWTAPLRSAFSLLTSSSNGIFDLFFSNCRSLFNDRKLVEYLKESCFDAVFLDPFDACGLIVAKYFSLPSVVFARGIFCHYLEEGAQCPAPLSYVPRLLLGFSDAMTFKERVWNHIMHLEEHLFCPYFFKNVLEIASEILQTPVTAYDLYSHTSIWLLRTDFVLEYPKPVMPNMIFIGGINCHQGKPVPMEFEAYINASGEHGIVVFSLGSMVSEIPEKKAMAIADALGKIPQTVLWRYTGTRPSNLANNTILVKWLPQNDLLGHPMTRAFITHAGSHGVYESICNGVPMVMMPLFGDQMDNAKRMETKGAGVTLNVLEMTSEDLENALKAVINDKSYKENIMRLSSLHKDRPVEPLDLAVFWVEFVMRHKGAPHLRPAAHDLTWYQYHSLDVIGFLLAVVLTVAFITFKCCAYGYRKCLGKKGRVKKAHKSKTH

Data set [7] addresses T2, Cytochrome P450 2C8 (Homo sapiens, UniProt P10632).
T2 sequence (P10632 whole entry): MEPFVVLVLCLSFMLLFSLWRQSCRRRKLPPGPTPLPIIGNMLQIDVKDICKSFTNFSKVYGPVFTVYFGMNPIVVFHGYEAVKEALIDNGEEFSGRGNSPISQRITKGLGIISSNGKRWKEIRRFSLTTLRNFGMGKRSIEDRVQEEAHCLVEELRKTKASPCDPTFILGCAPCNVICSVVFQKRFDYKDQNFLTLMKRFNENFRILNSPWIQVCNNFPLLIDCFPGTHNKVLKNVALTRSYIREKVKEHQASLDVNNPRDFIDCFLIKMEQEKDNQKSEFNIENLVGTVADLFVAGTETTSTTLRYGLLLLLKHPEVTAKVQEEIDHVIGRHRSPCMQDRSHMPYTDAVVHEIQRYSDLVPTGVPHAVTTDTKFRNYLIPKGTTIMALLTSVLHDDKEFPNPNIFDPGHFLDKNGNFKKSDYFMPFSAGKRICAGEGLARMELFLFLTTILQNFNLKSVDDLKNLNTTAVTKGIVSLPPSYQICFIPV
In words: Competitive inhibition of CYP2C8 in human liver microsomes assessed as paclitaxel 6-hydroxylation after 20 mins by LC-MS/MS analysis. The data set is classed as ADME.

Data set [8] addresses CYP2B6 (Homo sapiens, UniProt P20813). The data set can be described thus: Induction of CYP2B6 in human hepatocytes using bupropion as substrate at 0.3 to 30 uM treated every 24 hrs for 2 days measured on day 5 by LC-MS/MS analysis relative to control. To be noted: probe bupropion, read-out: FC. In kind it is ADME, cell-based, Hepatocyte.
Data set [9] in a line: Cmax in healthy human at 50 mg, po. In kind it is ADME, organism-based. More on the design: dose 50 mg, route oral. To be noted: in vivo.
Data set [10] in a line: Drug metabolism in human liver microsomes assessed as […]-mediated (2S,3S,4S,5R,6S)-6-(2-(4-(4-(tert-butylcarbamoyl)-2-(2-chloro-4-cyclopropylphenylsulfonamido)phenoxy)-5-chloro-2-fluorophenyl)acetoxy)-3,4,5-trihydroxytetrahydro-2H-pyran-2-carboxylic acid formation after 15 mins by LC-MS/MS analysis in presence of UDPGA and NADPH. The data set is classed as ADME. To be noted: 0.25 h.

Data set [11] is described as follows: Drug metabolism in human liver microsomes assessed as […]-mediated (2S,3S,4S,5R,6S)-6-(2-(4-(4-(tert-butylcarbamoyl)-2-(2-chloro-4-cyclopropylphenylsulfonamido)phenoxy)-5-chloro-2-fluorophenyl)acetoxy)-3,4,5-trihydroxytetrahydro-2H-pyran-2-carboxylic acid formation after 15 mins by LC-MS/MS analysis in presence of UDPGA. In kind it is ADME. To be noted: 0.25 h.

In data set [12] the target is Cytochrome P450 3A4 (Homo sapiens, UniProt P08684). The data set can be described thus: Drug metabolism assessed as recombinant CYP3A4 (unknown origin)-mediated 2-(4-(4-(tert-butylcarbamoyl)-2-(2-chloro-4-(1-hydroxycyclopropyl)phenylsulfonamido)phenoxy)-5-chloro-2-fluorophenyl)acetic acid formation at 10 uM after 30 mins by LC-MS/MS analysis. In kind it is ADME. To be noted: recombinant enzyme, 0.5 h.
Sequence of Cytochrome P450 3A4 (P08684 whole entry): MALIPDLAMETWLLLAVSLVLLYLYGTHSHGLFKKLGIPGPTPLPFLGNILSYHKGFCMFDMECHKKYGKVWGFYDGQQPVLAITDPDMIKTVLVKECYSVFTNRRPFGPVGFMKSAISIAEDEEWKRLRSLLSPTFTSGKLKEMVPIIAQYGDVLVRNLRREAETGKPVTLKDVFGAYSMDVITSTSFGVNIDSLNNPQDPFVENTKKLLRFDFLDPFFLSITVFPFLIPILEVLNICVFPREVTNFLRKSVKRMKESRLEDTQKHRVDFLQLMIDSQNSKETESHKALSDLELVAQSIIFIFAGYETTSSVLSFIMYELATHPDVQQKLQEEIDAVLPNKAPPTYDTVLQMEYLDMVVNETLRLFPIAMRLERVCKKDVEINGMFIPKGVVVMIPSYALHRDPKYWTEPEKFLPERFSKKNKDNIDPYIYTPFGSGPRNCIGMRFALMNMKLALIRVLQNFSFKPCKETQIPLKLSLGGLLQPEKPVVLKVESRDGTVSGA

The target in data set [13] is Cytochrome P450 3A7 (Homo sapiens, UniProt P24462). The data set can be described thus: Drug metabolism assessed as recombinant CYP3A7 (unknown origin)-mediated 2-(4-(4-(tert-butylcarbamoyl)-2-(2-chloro-4-(1-hydroxycyclopropyl)phenylsulfonamido)phenoxy)-5-chloro-2-fluorophenyl)acetic acid formation at 10 uM after 30 mins by LC-MS/MS analysis. To be noted: recombinant enzyme, 0.5 h. The data set is classed as ADME.
Sequence of Cytochrome P450 3A7 (P24462 whole entry): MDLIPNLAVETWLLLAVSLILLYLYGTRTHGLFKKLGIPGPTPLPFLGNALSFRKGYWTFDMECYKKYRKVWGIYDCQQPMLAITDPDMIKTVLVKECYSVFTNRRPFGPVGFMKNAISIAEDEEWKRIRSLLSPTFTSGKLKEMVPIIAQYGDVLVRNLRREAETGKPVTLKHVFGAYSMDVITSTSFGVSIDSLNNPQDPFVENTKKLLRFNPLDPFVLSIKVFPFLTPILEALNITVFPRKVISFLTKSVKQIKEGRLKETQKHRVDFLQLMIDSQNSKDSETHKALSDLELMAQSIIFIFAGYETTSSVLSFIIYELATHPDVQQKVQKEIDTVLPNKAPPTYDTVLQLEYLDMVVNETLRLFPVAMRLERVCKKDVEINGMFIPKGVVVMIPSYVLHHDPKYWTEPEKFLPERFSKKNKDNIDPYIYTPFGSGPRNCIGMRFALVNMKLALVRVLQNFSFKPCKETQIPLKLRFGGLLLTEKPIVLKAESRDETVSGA

Data set [14] relates to Liver microsome. The data set can be described thus: Drug metabolism in human liver microsomes assessed as 2-(4-(4-(tert-butylcarbamoyl)-2-(2-chloro-4-(1-hydroxycyclopropyl)phenylsulfonamido)phenoxy)-5-chloro-2-fluorophenyl)acetic acid formation at 2 uM after 60 mins by LC-MS/MS analysis in presence of montelukast. To be noted: 1 h. In kind it is ADME.
The subject of data set [15] is Liver microsome. In words: Drug metabolism in human liver microsomes assessed as 2-(5-chloro-4-(2-(2-chloro-4-cyclopropylphenylsulfonamido)-4-(1-hydroxy-2-methylpropan-2-ylcarbamoyl)phenoxy)-2-fluorophenyl)acetic acid formation at 2 uM after 60 mins by LC-MS/MS analysis in presence of ketoconazole. To be noted: 1 h. The data set is classed as ADME.
The target of data set [16] is UDP-glucuronosyltransferase 1A10 (Homo sapiens, UniProt Q9HAW8). In words: Drug metabolism assessed as human recombinant UGT1A10-mediated (2S,3S,4S,5R,6S)-6-(2-(4-(4-(tert-butylcarbamoyl)-2-(2-chloro-4-cyclopropylphenylsulfonamido)phenoxy)-5-chloro-2-fluorophenyl)acetoxy)-3,4,5-trihydroxytetrahydro-2H-pyran-2-carboxylic acid formation at 10 uM after 30 mins by LC-MS/MS analysis. In kind it is ADME. To be noted: recombinant enzyme, 0.5 h.
Sequence of UDP-glucuronosyltransferase 1A10 (Q9HAW8 whole entry): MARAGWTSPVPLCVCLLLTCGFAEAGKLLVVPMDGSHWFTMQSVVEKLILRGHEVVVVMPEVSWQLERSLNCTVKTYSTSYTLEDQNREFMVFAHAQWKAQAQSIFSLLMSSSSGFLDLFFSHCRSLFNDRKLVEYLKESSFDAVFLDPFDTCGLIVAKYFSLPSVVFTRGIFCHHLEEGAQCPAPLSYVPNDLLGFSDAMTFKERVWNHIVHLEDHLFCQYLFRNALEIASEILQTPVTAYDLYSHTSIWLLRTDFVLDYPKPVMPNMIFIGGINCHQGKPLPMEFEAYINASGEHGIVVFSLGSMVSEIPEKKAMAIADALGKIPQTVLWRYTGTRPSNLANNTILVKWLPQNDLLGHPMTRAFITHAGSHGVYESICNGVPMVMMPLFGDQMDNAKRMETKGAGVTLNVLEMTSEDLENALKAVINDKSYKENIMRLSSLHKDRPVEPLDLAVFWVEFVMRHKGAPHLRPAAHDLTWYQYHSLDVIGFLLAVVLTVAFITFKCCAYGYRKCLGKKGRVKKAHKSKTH

Sequence of CYP2B6 (P20813 whole entry): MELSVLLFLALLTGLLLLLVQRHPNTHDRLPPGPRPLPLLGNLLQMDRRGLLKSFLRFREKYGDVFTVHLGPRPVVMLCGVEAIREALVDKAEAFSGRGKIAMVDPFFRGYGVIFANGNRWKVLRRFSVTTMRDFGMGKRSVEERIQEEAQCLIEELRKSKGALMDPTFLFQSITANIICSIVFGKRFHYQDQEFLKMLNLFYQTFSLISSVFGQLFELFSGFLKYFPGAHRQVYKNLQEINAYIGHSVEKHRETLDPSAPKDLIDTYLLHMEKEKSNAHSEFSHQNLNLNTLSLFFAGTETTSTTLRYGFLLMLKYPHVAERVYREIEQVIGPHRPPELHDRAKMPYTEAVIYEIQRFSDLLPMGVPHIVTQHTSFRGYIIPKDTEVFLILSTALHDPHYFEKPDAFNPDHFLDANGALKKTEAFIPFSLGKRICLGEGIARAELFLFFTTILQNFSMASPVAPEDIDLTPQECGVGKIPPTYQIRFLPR

Regarding `CC(C)(C)NC(=O)c1ccc(Oc2cc(F)c(CC(=O)O[C@@H]3O[C@H](C(=O)O)[C@@H](O)[C@H](O)[C@H]3O)cc2Cl)c(NS(=O)(=O)c2ccc(C3CC3)cc2Cl)c1`, the Drug metabolism entry in [1], in [2] and in data set [4] was “metabolite_detected” throughout. Besides, the S50 in data set [3] is 183.4 µM. Moreover, the Vmax in data set [3] is 13.6 pmol/min/mg.
Turning to `CC(C)(C)NC(=O)c1ccc(Oc2cc(F)c(CC(=O)O)cc2Cl)c(NS(=O)(=O)c2ccc(C3CC3)cc2Cl)c1` [VIDUPIPRANT], the Drug metabolism entry in data set [5] is “metabolite_detected”; in data set [6], “metabolite_not_detected”; in data set [10] it was “metabolite_not_detected”; in data set [11] it was “metabolite_detected”; in data set [12], “metabolite_detected”; in data set [13], “metabolite_detected”. Further, the Drug metabolism result in data set [14], in data set [15] and in data set [16] was “metabolite_not_detected” in each case. Moreover, in [7], the Ki amounted to 1100 nM. Also, in [8], the fold induction at 48 h, up to 30 µM was determined as 1.4. Besides, the Cmax in data set [9] came to 227 ng/mL.
